ChEMBL document CHEMBL1201862, “PubChem BioAssay data set” (2004)
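Values below derive from 48-hour exposures of cells grown in 96-well plates, with endpoints linearly interpolated between the two concentrations bracketing the appropriate inhibition level. GI50 marks 50% less growth.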 Activity calls are given as the source filed them. Rule as the data show it: active = GI50 up to about 1.1 µM and inactive = higher.

What was measured:
Assay in all cases: growth of human tumour cells (NCI), 48 h
786-0 = system: 786-0
A498 = system: A498
A549 = system: A549
ACHN = system: ACHN
BT-549 = system: BT-549
CAKI-1 = system: CAKI-1
CCRF-CEM = system: CCRF-CEM
COLO 205 = system: COLO 205
DU-145 = system: DU-145
EKVX = system: EKVX
HCC 2998 = system: HCC 2998
HCT-116 = system: HCT-116
HCT-15 = system: HCT-15
HL-60 = system: HL-60
HOP-92 = system: HOP-92
HT-29 = system: HT-29
Hs-578T = system: Hs-578T
IGROV-1 = system: IGROV-1
K562 = system: K562
KM12 = system: KM12
LOX IMVI = system: LOX IMVI
M14 = system: M14
MCF7 = system: MCF7
MDA-MB-231 = system: MDA-MB-231
MDA-MB-435 = system: MDA-MB-435
MDA-N = system: MDA-N
MOLT-4 = system: MOLT-4
Malme-3M = system: Malme-3M
NCI-H226 = system: NCI-H226
NCI-H23 = system: NCI-H23
NCI-H460 = system: NCI-H460
NCI-H522 = system: NCI-H522
NCI/ADR-RES = system: NCI/ADR-RES
OVCAR-4 = system: OVCAR-4
OVCAR-5 = system: OVCAR-5
OVCAR-8 = system: OVCAR-8
PC-3 = system: PC-3
SF-268 = system: SF-268
SF-295 = system: SF-295
SF-539 = system: SF-539
SK-MEL-28 = system: SK-MEL-28
SK-MEL-2 = system: SK-MEL-2
SK-MEL-5 = system: SK-MEL-5
SK-OV-3 = system: SK-OV-3
SN12C = system: SN12C
SNB-19 = system: SNB-19
SNB-75 = system: SNB-75
SR = system: SR
SW-620 = system: SW-620
T47D = system: T47D
TK-10 = system: TK-10
U-251 = system: U-251
UACC-257 = system: UACC-257
UACC-62 = system: UACC-62
UO-31 = system: UO-31

With `C=CC1(C)CCC2C(=CCC3C2(C)CC(O)C(O)C3(C)COC2OC(CO)C(O)C(O)C2O)C1` (stereo not given) the GI50 (786-0) was > 100 µM (inactive), the GI50 (A498) was > 100 µM (inactive) and the GI50 (A549) was > 100 µM (inactive). For the same molecule, the GI50 (ACHN) was > 100 µM (inactive), the GI50 (BT-549) was > 100 µM (inactive) and the GI50 (CAKI-1) was > 100 µM (inactive). For the same molecule, the GI50 (CCRF-CEM) was 46.1 µM (inactive), the GI50 (COLO 205) was > 100 µM (inactive) and the GI50 (DU-145) was > 100 µM (inactive). The GI50 (EKVX) was > 100 µM (inactive), the GI50 (HCC 2998) was > 100 µM (inactive) and the GI50 (HCT-116) was > 100 µM (inactive). The GI50 (HCT-15) was > 100 µM, the GI50 (HL-60) was 57.9 µM (inactive) and the GI50 (HOP-92) was > 100 µM (inactive). For the same molecule, the GI50 (HT-29) was > 100 µM (inactive), the GI50 (Hs-578T) was > 100 µM (inactive) and the GI50 (IGROV-1) was > 100 µM (inactive). The GI50 (K562) was > 100 µM (inactive), the GI50 (KM12) was > 100 µM (inactive) and the GI50 (LOX IMVI) was > 100 µM (inactive). For the same molecule, the GI50 (M14) was > 100 µM (inactive), the GI50 (MCF7) was > 100 µM (inactive) and the GI50 (MDA-MB-231) was > 100 µM (inactive). For the same molecule, the GI50 (MDA-MB-435) was > 100 µM (inactive), the GI50 (MDA-N) was > 100 µM (inactive) and the GI50 (MOLT-4) was 68.1 µM (inactive). For the same molecule, the GI50 (Malme-3M) was > 100 µM (inactive), the GI50 (NCI-H226) was > 100 µM (inactive) and the GI50 (NCI-H23) was > 100 µM (inactive). The GI50 (NCI-H460) was 87.9 µM (inactive), the GI50 (NCI-H522) was > 100 µM (inactive) and the GI50 (NCI/ADR-RES) was > 100 µM (inactive). For the same molecule, the GI50 (OVCAR-4) was > 100 µM (inactive), the GI50 (OVCAR-5) was > 100 µM (inactive) and the GI50 (OVCAR-8) was > 100 µM (inactive). For the same molecule, the GI50 (PC-3) was > 100 µM (inactive), the GI50 (SF-268) was > 100 µM (inactive) and the GI50 (SF-295) was > 100 µM (inactive). The GI50 (SF-539) was > 100 µM (inactive), the GI50 (SK-MEL-28) was > 100 µM (inactive) and the GI50 (SK-MEL-2) was > 100 µM (inactive). The GI50 (SK-MEL-5) was > 100 µM (inactive), the GI50 (SK-OV-3) was > 100 µM (inactive) and the GI50 (SN12C) was > 100 µM (inactive). The GI50 (SNB-19) was 44.8 µM (inactive), the GI50 (SNB-75) was > 100 µM (inactive) and the GI50 (SR) was 41.4 µM (inactive). For the same molecule, the GI50 (SW-620) was > 100 µM (inactive), the GI50 (T47D) was > 100 µM (inactive) and the GI50 (TK-10) was > 100 µM (inactive). The GI50 (U-251) was > 100 µM (inactive), the GI50 (UACC-257) was > 100 µM (inactive) and the GI50 (UACC-62) was > 100 µM (inactive). The GI50 (UO-31) was > 100 µM (inactive).
